Molecular target: MAPK14;MAPK11;MAPK12 (human) (UniProt Q16539)
Experiment: Inhibition of p38 Kinase Activity

| IC50 | SMILES |
| --- | --- |
| < 1 µM | Cc1ccc(C(N)=O)cc1Nc1nc(NC2Cc3ccccc3C2)nc(N[C@@H]2CCNC2)n1 |
| < 10 µM | Cn1ccc2cc(Nc3nc(Cl)nc(NC[C@@H]4CC[C@H]5C[C@@H]4C5(C)C)n3)ccc21 |
| < 10 µM | Cc1ccc2c(c1)ncn2-c1nc(F)cc(NCCOC(C)C)n1 |
| < 1 µM | CCCN(C)c1nc(Nc2cc(C(N)=O)ccc2C)nc(N[C@H]2CCNC2)n1 |
| < 1 µM | CC(=O)NCCNc1nc(Nc2cc(C(N)=O)ccc2C)nc(N(C)CC(C)(C)C)n1 |
| < 1 µM | CCOC(=O)Nc1ccc(C)c(Nc2nc(NCCN3CCCC3)nc(N(C)CC(C)(C)C)n2)c1 |
| < 1 µM | Cc1ccc(C(=O)Nc2cccc(N(C)C)c2)cc1Nc1nc(N[C@H]2CCNC2)nc(N(C)CC(C)C)n1 |
| < 1 µM | CC(=O)NCc1ccc(C)c(Nc2nc(N[C@H]3CCNC3)nc(N(C)CC(C)(C)C)n2)c1 |
| < 1 µM | Cc1ccc(C(N)=O)cc1Nc1nc(N[C@@H]2CCNC2)nc(-c2cccc(Cl)c2)n1 |
| < 1 µM | Cc1ccc(C(N)=O)cc1Nc1nc(NC2CCN(Cc3ccc(C(C)C)cc3)C2)nc(N(C)CC(C)C)n1 (stereo unspecified) |
| < 10 µM | CC(C)c1nc(Nc2ccc3ncsc3c2)nc(N2CCNCC2)n1 |
| < 10 µM | C[C@H](CNc1nc(NCCO)nc(Nc2ccc3ncsc3c2)n1)c1ccccc1 |
| < 10 µM | O=C(O)CCC(=O)N1CCN(c2nc(NCC3CCCCC3)nc(Nc3ccc4ncsc4c3)n2)CC1 |
| < 1 µM | Cc1ccc(C(=O)NC(C)C)cc1Nc1nc(N[C@H]2CCNC2)nc(N(C)CC(C)(C)C)n1 |
| < 1 µM | CCN(CC(C)(C)C)c1nc(Nc2cc(C(N)=O)ccc2C)nc(N[C@H]2CCNC2)n1 |
| < 10 µM | CC(C)c1nc(NCC(C)c2ccccc2)nc(Nc2ccc3ncsc3c2)n1 (stereo unspecified) |
| < 1 µM | Cc1ccc(C(N)=O)cc1Nc1nc(N[C@H]2CCN(Cc3ccncc3)C2)nc(N(C)CC(C)C)n1 |
| < 1 µM | CCNC(=O)c1ccc(C)c(Nc2nc(N[C@H]3CCNC3)nc(N(C)CC3CCCC3)n2)c1 |
| < 10 µM | CC1(C)C2CCC(CNc3nc(Nc4ccc5ncsc5c4)nc(N4CCC(C(N)=O)CC4)n3)C1C2 (stereo unspecified) |
| < 1 µM | Cc1ccc(C(N)=O)cc1Nc1nc(N[C@H]2CONC2=O)nc(N(C)CC(C)(C)C)n1 |
| < 1 µM | Cc1ccc(C(N)=O)cc1Nc1nc(NCC(C)c2ccc(Cl)cc2)nc(N[C@H]2CCNC2)n1 (stereo partly specified) |
| < 10 µM | CC(C)c1nc(Cl)nc(Nc2ccc3ncsc3c2)n1 |
| < 1 µM | Cc1ccc(C(=O)Nc2ccccn2)cc1Nc1nc(N[C@H]2CCNC2)nc(N(C)CC(C)C)n1 |

| IC50 | SMILES |
| --- | --- |
| < 1 µM | CCONC(=O)c1ccc(C)c(Nc2nc(N(C)CC(C)(C)C)nc(N3CCCNCC3)n2)c1 |
| < 10 µM | CC(C)OCCNc1cc(N(C)C)nc(-n2cnc3ccccc32)n1 |
| < 1 µM | CONC(=O)c1ccc(C)c(Nc2nc(F)cc(N(C)CC(C)(C)C)n2)c1 |
| < 1 µM | CCCC1(C)CCN(c2nc(Nc3cc(C(=O)NC)ccc3C)nc(N[C@@H]3CCNC3)n2)C1 (stereo partly specified) |
| < 1 µM | Cc1ccc(C(=O)NO)cc1Nc1nc(N[C@H]2CCNC2)nc(N(C)CC(C)(C)C)n1 |
| < 1 µM | Cc1ccc(C(N)=O)cc1Nc1nc(N[C@H]2CCN(C(C#N)c3ccccc3)C2)nc(N(C)CC(C)C)n1 (stereo partly specified) |
| < 10 µM | CC(CNc1nc(Nc2ccc3ncsc3c2)nc(N2CC3CC2CN3C(=O)Cc2ccc(Cl)c(Cl)c2)n1)c1ccccc1 (stereo unspecified) |
| < 10 µM | CC(CNc1nc(Nc2ccc3ncsc3c2)nc(N(C)C)n1)c1ccccc1 (stereo unspecified) |
| < 1 µM | CNC(=O)c1ccc(C)c(Nc2nc(N[C@H]3CCNC3)nc(N(C)CC(C)(C)C)n2)c1 |
| < 1 µM | CCONC(=O)c1ccc(C)c(Nc2cc(N3CCCN(C)CC3)nc(N(C)CC(C)(C)C)n2)c1 |
| < 1 µM | CCCN1CC[C@@H](Nc2nc(Nc3cc(C(N)=O)ccc3C)nc(N(C)CC(C)C)n2)C1 |
| < 1 µM | Cc1ccc(CNC(C)C)cc1Nc1nc(N[C@H]2CCNC2)nc(N(C)CC(C)(C)C)n1 |
| < 1 µM | Cc1ccc(C(N)=O)cc1Nc1nc(Cl)nc(N[C@@H]2CCNC2)n1 |
| < 10 µM | CNCCN(C)c1nc(NCC2CCC3CC2C3(C)C)nc(Nc2ccc3ncccc3c2)n1 (stereo unspecified) |
| < 1 µM | Cc1ccc(C(N)=O)cc1Nc1nc(N[C@H]2CCNC2)nc(N(C)C[C@H](C)c2ccccc2)n1 |
| < 1 µM | Cc1ccc(C(N)=O)cc1Nc1nc(NC2CCN(Cc3ccc(C(F)(F)F)cc3)C2)nc(N(C)CC(C)C)n1 (stereo unspecified) |
| < 1 µM | CONC(=O)c1ccc(C)c(Nc2nc(NCCCN3CCOCC3)nc(N(C)CC(C)(C)C)n2)c1 |
| < 10 µM | CC(CNc1nc(Nc2ccc3ncsc3c2)nc(N(C)CCCN(C)S(=O)(=O)N(C)C)n1)c1ccccc1 (stereo unspecified) |
| < 1 µM | Cc1ccc(COC(=O)C(F)(F)F)cc1Nc1nc(N[C@H]2CCNC2)nc(N(C)CC(C)(C)C)n1 |
| < 1 µM | CC1(C)[C@H]2CC[C@@H](CNc3nc(N4CCCNCC4)nc(N4CCc5ccc([N+](=O)[O-])cc54)n3)[C@@H]1C2 |
| < 30 µM | CNC(=O)c1ccc(C)c(Oc2nc(NCc3ccccn3)nc(N(C)CC(C)(C)C)n2)c1 |
| < 1 µM | Cc1ccc(C(N)=O)cc1Nc1nc(NCC2CCCCC2)nc(N[C@@H]2CCNC2)n1 |
| < 1 µM | COCCC(=O)N1CC[C@@H](Nc2nc(Nc3cc(C(N)=O)ccc3C)nc(N(C)CC(C)C)n2)C1 |

| IC50 | SMILES |
| --- | --- |
| < 10 µM | CC1(C)C2CCC(CNc3nc(Nc4ccc5ncoc5c4)nc(N4CCN(C(=O)CCC(=O)O)CC4)n3)C1C2 (stereo unspecified) |
| < 1 µM | Cc1ccc(C(N)=O)cc1Nc1nc(NC2CCN(Cc3ccc(O)cc3)C2)nc(N(C)CC(C)C)n1 (stereo unspecified) |
| < 1 µM | Cc1ccc(C(N)=O)cc1Nc1nc(NCC(C)c2ccccc2)nc(N[C@H]2CCNC2)n1 (stereo partly specified) |
| < 10 µM | CCNC(=O)N1CCN(c2nc(NCC(C)c3ccccc3)nc(Nc3ccc4ncsc4c3)n2)CC1 (stereo unspecified) |
| < 1 µM | Cc1ccc(C(N)=O)cc1Nc1nc(NCC2(C)CCCC2)nc(N[C@H]2CCNC2)n1 |
| < 10 µM | CC(CCCCCCNc1nc(NCC(C)c2ccccc2)nc(Nc2ccc3ncoc3c2)n1)C(N)=O (stereo unspecified) |
| < 1 µM | Cc1ccc(C(N)=O)cc1Nc1nc(N[C@H]2CN[C@@H](C)C2)nc(N(C)CC(C)(C)C)n1 |
| < 10 µM | CC(CNc1nc(Nc2ccc3ncsc3c2)nc(N2CCN(C(=N)N)CC2)n1)c1ccccc1 (stereo unspecified) |
| < 1 µM | Cc1ccc(C(N)=O)cc1Nc1nc(N[C@H]2CCN(Cc3cccc4c3OCO4)C2)nc(N(C)CC(C)C)n1 |
| < 10 µM | CC1(C)[C@H]2CCC(COc3nc(Cl)nc(Nc4ccc5ncsc5c4)n3)[C@@H]1C2 (stereo partly specified) |
| < 10 µM | CC(C)NC(=O)N(C)CCCN(C)c1nc(NCC(C)c2ccccc2)nc(Nc2ccc3ncsc3c2)n1 (stereo unspecified) |
| < 1 µM | Cc1ccc(C(N)=O)cc1Nc1nc(NC2CNC2)nc(N(C)CC(C)(C)C)n1 |
| < 1 µM | Cc1ccc(C(N)=O)cc1Nc1nc(NCCC(C)(C)C)nc(N[C@@H]2CCNC2)n1 |
| < 1 µM | CONC(=O)c1ccc(C)c(Nc2nc(N(C)CC(C)(C)C)nc(N3CCCNCC3)n2)c1 |
| < 10 µM | O=C(O)CCC(=O)N1CCN(c2nc(Nc3ccc4ncsc4c3)nc(N3CCc4ccccc4C3)n2)CC1 |
| < 10 µM | CCOCNc1nc(NCC(C)c2ccccc2)nc(Nc2ccc3ncsc3c2)n1 (stereo unspecified) |
| < 1 µM | Cc1ccc(C(N)=O)cc1Nc1nc(NC[C@@H]2CC[C@H]3C[C@@H]2C3(C)C)nc(N[C@@H]2CCNC2)n1 |
| < 1 µM | Cc1ccc2c(c1Nc1nc(NCC(C)(C)C)nc(N[C@H]3CCNC3)n1)CNC2=O |
| < 1 µM | Cc1ccc(C(N)=O)cc1Nc1nc(N[C@H]2CCN(C3CCCCC3)C2)nc(N(C)CC(C)(C)C)n1 |
| < 10 µM | c1ccc2c(c1)CCN(c1nc(Nc3ccc4ncsc4c3)nc(N3CCNCC3)n1)C2 |
| < 1 µM | Cc1ccc(C(N)=O)cc1Nc1nc(N[C@H]2CCNC2)nc(N(C)CC(C)c2ccccc2)n1 (stereo partly specified) |
| < 1 µM | COC(=O)c1ccc(C)c(Nc2nc(N[C@H]3CCNC3)nc(N(C)CC(C)(C)C)n2)c1 |
| < 1 µM | Cc1ccc(C(N)=O)cc1Nc1nc(N[C@H]2CCN(Cc3ccc(O)cc3)C2)nc(N(C)CC(C)(C)C)n1 |

| IC50 | SMILES |
| --- | --- |
| < 1 µM | CNC(=O)c1ccc(C)c(Nc2nc(N[C@H]3CCN(Cc4ccccc4OC)C3)nc(N(C)CC(C)C)n2)c1 |
| < 10 µM | CC(CNc1nc(Nc2ccc3ncsc3c2)nc(N(C)CCCN(C)C(=O)c2ccco2)n1)c1ccccc1 (stereo unspecified) |
| < 1 µM | CCONC(=O)c1ccc(C)c(Nc2nc(NCCO)nc(N(C)CC(C)(C)C)n2)c1 |
| < 1 µM | Cc1ccc(C(N)=O)cc1Nc1nc(N[C@H]2CCCNC2)nc(N(C)CC(C)C)n1 |
| < 1 µM | Cc1ccc2c(c1Nc1nc(N[C@H]3CCNC3)nc(N(C)CC(C)(C)C)n1)CNC2=O |
| < 10 µM | COCC(=O)N1CC2CC1CN2c1nc(NCC(C)c2ccccc2)nc(Nc2ccc3ncsc3c2)n1 (stereo unspecified) |
| < 1 µM | Cc1ccc(C(N)=O)cc1Nc1nc(N[C@H]2CCN(c3ccccc3)C2)nc(N(C)CC(C)(C)C)n1 |
| < 10 µM | CN(CC1CCC2CC1C2(C)C)c1nc(Nc2ccc3ncsc3c2)nc(N2CCNCC2)n1 (stereo unspecified) |
| < 10 µM | CN(CC1CC[C@H]2C[C@@H]1C2(C)C)c1nc(Nc2ccc3ncsc3c2)nc(N2CCN(C(=O)CCC(=O)O)CC2)n1 (stereo partly specified) |
| < 10 µM | CC(CN(C)c1nc(Nc2ccc3ncsc3c2)nc(N2CCNCC2)n1)c1ccccc1 (stereo unspecified) |
| < 10 µM | CC(C)C(=O)N(C)CCCN(C)c1nc(NCC(C)c2ccccc2)nc(Nc2ccc3ncsc3c2)n1 (stereo unspecified) |
| < 1 µM | Cc1ccc(C(N)=O)cc1Nc1nc(N[C@H]2CCN(Cc3cccc(Cl)c3)C2)nc(N(C)CC(C)C)n1 |
| < 1 µM | CNc1nc(Nc2cc(C(=O)NOC)ccc2C)nc(N(C)CC(C)(C)C)n1 |
| < 1 µM | Cc1ccc(C(N)=O)cc1Nc1nc(N[C@H]2CCN(C(C#N)c3ccccc3)C2)nc(N(C)CC(C)(C)C)n1 (stereo partly specified) |
| < 1 µM | COCCN1CCC(Nc2nc(Nc3cc(C(N)=O)ccc3C)nc(N(C)CC(C)C)n2)C1 (stereo unspecified) |
| < 10 µM | CNCCN(C)c1nc(NCC(C)c2ccccc2)nc(Oc2ccc3ncsc3c2)n1 (stereo unspecified) |
| < 1 µM | Cc1ccc(C(N)=O)cc1Nc1nc(N[C@H]2CCN(Cc3ccccc3O)C2)nc(N(C)CC(C)C)n1 |
| < 1 µM | Cc1ccc(C(N)=O)cc1Nc1nc(N[C@H]2CCCC[C@H]2NC(=O)CO[C@H]2C[C@@H](C)CC[C@H]2C(C)C)nc(N(C)CC(C)C)n1 |
| < 1 µM | Cc1ccc(C(N)=O)cc1Nc1nc(N[C@H]2CCN(Cc3ccccc3C#N)C2)nc(N(C)CC(C)C)n1 |
| < 1 µM | Cc1ccc(C(N)=O)cc1Nc1cc(NC(C)c2ccccc2)nc(NCC(N)=O)n1 (stereo unspecified) |
| < 1 µM | NC(=O)c1ccc(N)c(Nc2nc(NC3CCNC3)nc(N3CCCC3)n2)c1 (stereo unspecified) |
| < 10 µM | COc1ccc(C(=O)N(C)CCCN(C)c2nc(NCC(C)c3ccccc3)nc(Nc3ccc4ncsc4c3)n2)cc1 (stereo unspecified) |
